Experiments:
[1] = "at levels of up to 10%"; cited from earlier work
[2] = tested on: skin of a subject's left arm; test: Histology of polyphenol-stained (ferric chloride) punch biopsy, treated vs untreated skin; assay type: in vivo, human; conditions: 25% dimethyl isosorbide solution, topical, 24 days, vs untreated skin of same subject
Procedure: The skin of a subject's left arm 2 cm^2 patch (upper under arm above elbow) was treated with a 25% dimethyl isosorbide solution of glucosyl pentagallate for 24 days. Biopsy samples of the treated skin and a similar sample of untreated skin from the same subject's right were then taken, sectioned, and stained for polyphenol (Ferric Chloride stain) and imaged with a light microscope.

[3] = tested on: skin of a subject's left arm (elastic fibers); test: Histology of elastin (VVG stained) punch biopsy, treated vs untreated skin; assay type: in vivo, human; conditions: 25% dimethyl isosorbide solution, topical, 24 days, vs untreated skin of same subject
Procedure: The skin of a subject's left arm was treated with a 25% dimethyl isosorbide solution of glucosyl pentagallate for 24 days.

human cells = human cells in vitro; cited from earlier work

SMILES: NCCCC(=O)O [GABA, γ-aminobutyric acid]
- improvement of skin elasticity [1]: up to 10%

SMILES: O=C(OC[C@H]1O[C@@H](OC(=O)c2cc(O)c(O)c(O)c2)[C@H](OC(=O)c2cc(O)c(O)c(O)c2)[C@@H](OC(=O)c2cc(O)c(O)c(O)c2)[C@@H]1OC(=O)c1cc(O)c(O)c(O)c1)c1cc(O)c(O)c(O)c1 [glucosyl pentagallate]
- polyphenol (ferric chloride) staining of the dermis, showing glucosyl pentagallate in the dermis [2]: more black staining in the dermis
- VVG staining of elastic fibers (levels of elastin fibers) [3]: significant black staining

SMILES: CC1=NC(C(=O)O)CCN1 (stereo not shown) [Ectoin, 1,4,5,6-tetrahydro-2-methyl-4-pyrimidinecarboxylic acid]
- cell damage from UV and visible light (human cells): prevent cell damage from UV and visible light
